Results on 17 compounds are retold here after patent US20240368133A1, “Compounds for the Treatment of Pain, in Particular, Neuropathic Pain, and/or Other Diseases or Disorders that are Associated with AT2R and/or AT2R Mediated Signaling” (Confo Therapeutics N.V., priority 2021, published 2024).

In one series the target is human AT1R (Homo sapiens (Human), UniProt P30556). The series is described as follows: Counterscreen radioligand binding assay, displacement of 125I-[Sar1, Ile8]-Angiotensin II, hAT1R WT. Conditions: for inhibition at 1 µM / inhibition at 10 µM: 125I-[Sar1, Ile8]-Ang II, semi-quantitative score; for inhibition at 1 µM: compound at 1 μM, read-out: % Displaced radioligand at 1 μM; for inhibition at 10 µM: compound at 10 μM, read-out: % Displaced radioligand at 10 μM; for IC50: HEK-293 cell membranes, read-out: Binding affinity On hAT1R IC50. Summed up: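 Compounds displaced 0.05 nM 125I-[Sar1, Ile8]-Ang II from human AT1R in HEK-293 membranes (1 h, 25° C; Tris/MgCl2/EDTA/BSA buffer, pH 7.4). Readout was filtration and scintillation counting, with non-specific binding set by 10 μM [Sar1]-Ang II. Values are % displacement at 1 μM and […], or IC50 from eight-point four-parameter fits.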

Series [1] is described as follows: Liver microsomal stability, rat. Format: in vitro ADME. Conditions: male, pH 7.4, liver microsomes. The protocol: (§1) Mouse hepatic microsomes were isolated from pooled (50), perfused livers of male Balb/c mice. Rat hepatic microsomes were isolated from pooled (15), perfused livers of male Wistar rats. Isolation was performed according to the standard protocol (Hill, J. R. in Current Protocols in Pharmacology 7.8.1-7.8.11, Wiley Interscience, 2003). The batches of microsomes were tested for quality control using Imipramine, Propranolol and Verapamil as reference compounds.
(§2) Microsomal incubations were carried out in 96-well plates in 5 aliquots of 40 μL each (one for each time point). Liver microsomal incubation medium contained PBS (100 mM, pH 7.4), MgCl2 (3.3 mM), NADPH (3 mM), glucose-6-phosphate (5.3 mM), glucose-6-phosphate dehydrogenase (0.67 units/ml) with 0.42 mg of liver microsomal protein per ml. Control incubations were performed replacing the NADPH-cofactor system with PBS. Test compound (2 μM, final solvent concentration 1.6%) was incubated with microsomes at 37° C., shaking at 100 rpm. Incubations were performed in duplicates. Five time points over 40 minutes have been analyzed. The reactions were stopped by adding 12 volumes of 90% acetonitrile-water to incubation aliquots, followed by protein sedimentation by centrifuging at 5500 rpm for 3 minutes. […]. Supernatants were analyzed using the HPLC system coupled with tandem mass spectrometer (API3000 PE Sciex). Acquisition and analysis of the data were performed using Analyst 1.5.2 software (PE Sciex). The elimination constant (kel), half-life (t½) and intrinsic clearance (Clint) were determined in plot of […] versus time, using linear regression analysis:
(§3) Mouse hepatic microsomes were isolated from pooled, perfused livers of male CD1 mice. Rat hepatic microsomes were isolated from pooled, perfused livers of male Sprague Dawley rats. Dog hepatic microsomes were isolated from pooled, perfused livers of male Beagle dogs. The batches of microsomes were tested for quality control using Testosterone, Propranolol and Caffeine as reference compounds.
(§4) A 10 mM stock solution of compound in DMSO is diluted three-fold in DMSO. This pre-diluted compound solution is then further diluted to 2 μM in a 50 mM phosphate buffer (PBS, pH 7.4) and pre-warmed at 37° C. This compound dilution is mixed F2 with microsomal/cofactor mix at 37° C. under shaking at 300 rpm. Final reaction conditions are: 100 μL incubation volume, 1 μM of test compound (in duplicate), <0.1% DMSO, 0.5 mg/mL microsomes, 0.6 U/mL Glucose-6-phosphate-dehydrogenase (G6PDH, Roche, 10127671001), 3.3 mM MgCl2 (Sigma, M2670), 3.3 mM glucose-6-phosphate (Sigma, G-7879) and 1.3 mM NADP+ (Sigma, N-0505).
(§5) After 60 min of incubation at 300 rpm and 37° C., the reaction was stopped with 3 volumes of STOP solution (acetonitrile/MeOH 2/1 with diclofenac as internal standard). For the time point zero, 3 volumes of STOP solution were added to the compound dilution before the microsome mix was added. Six time points over 60 minutes have been analyzed. The samples of all time points were centrifuged, filtered and the supernatant analyzed by LCMS/MS (systems API4000).
(§6) The instrument responses (peak areas/IS peak area) were referenced to the zero time-point samples (considered as 100%) in order to determine the percentage of compound remaining.
(§7) Testosterone (1 μM) and Propranolol and Caffeine (1 μM) were used as reference compounds, being unstable and stable compounds respectively. If the microsomal stability values for these controls are not in the range determined by the historical data, the assay is not validated. The solubility of the compound in the final test concentration in 50 mM buffer pH 7.4 is checked by microscope to indicate whether precipitation is observed or not. If a precipitate is observed, no data of microsomal stability is generated.

The nature of series [2]: Liver microsomal stability, mouse. In kind it is in vitro ADME. Conditions: male, pH 7.4, liver microsomes. The protocol: as §1, §2, §3, §4, §5, §6, §7

Sequence of human AT1R (P30556 whole entry): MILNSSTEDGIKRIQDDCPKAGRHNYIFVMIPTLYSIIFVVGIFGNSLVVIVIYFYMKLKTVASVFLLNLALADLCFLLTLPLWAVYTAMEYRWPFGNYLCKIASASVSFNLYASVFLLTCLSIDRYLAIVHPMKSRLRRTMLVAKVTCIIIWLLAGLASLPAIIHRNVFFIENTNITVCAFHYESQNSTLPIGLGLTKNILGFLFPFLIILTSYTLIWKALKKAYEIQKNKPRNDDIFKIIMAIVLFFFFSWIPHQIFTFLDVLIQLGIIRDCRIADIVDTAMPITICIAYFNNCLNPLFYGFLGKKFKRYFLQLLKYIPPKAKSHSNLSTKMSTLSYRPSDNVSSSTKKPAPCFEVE

With `CCCCOC(=O)NS(=O)(=O)c1ccc(C(F)(F)F)cc1N1CCN(Cc2nc3ccccc3n2C)CC1` [Compound A-09, butyl N-[2-[4-[(1-methylbenzimidazol-2-yl)methyl]piperazin-1-yl]-4-(trifluoromethyl)phenyl]sulfonylcarbamate], at human AT1R, the inhibition at 1 µM was less than 30%, the inhibition at 10 µM is less than 30% and the IC50 amounted to 36.5 µM. Also, in series [1], the microsomal CLint came out at 33 µL/min/mg. Further, the intrinsic clearance (microsomal CLint) in series [2] was found to be 33 µL/min/mg.

`CCCCNC(=O)NS(=O)(=O)c1ccc(C(F)(F)F)cc1N1CCN(Cc2nc3ccccc3n2C)CC1` [Compound A-10, 1-butyl-3-[2-[4-[(1-methylbenzimidazol-2-yl)methyl]piperazin-1-yl]-4-(trifluoromethyl)phenyl]sulfonyl-urea]: on human AT1R, the inhibition at 1 µM is less than 30% and the inhibition at 10 µM was less than 30%. The same compound had an intrinsic clearance (microsomal CLint) in series [1] of 28 µL/min/mg. The compound further registered an intrinsic metabolic clearance (microsomal CLint) in series [2] of 69 µL/min/mg.

With `CCCCNC(=O)NS(=O)(=O)c1ccc(C)cc1N1CCN(Cc2nc3ccccc3n2C)CC1` [Compound A-12, 1-butyl-3-[4-methyl-2-[4-[(1-methylbenzimidazol-2-yl)methyl]piperazin-1-yl]phenyl]sulfonyl-urea], on human AT1R, the inhibition at 1 µM is less than 30% and the inhibition at 10 µM was less than 30%. Further, the intrinsic metabolic clearance (microsomal CLint) in series [1] came to 23 µL/min/mg. This compound also yielded a microsomal CLint in series [2] of 157 µL/min/mg.

Turning to `CC(C)Cc1ccc(-c2nn[nH]n2)c(N2CCN(Cc3nc4ccccc4n3C)CC2)c1` [Compound A-20, 2-[[4-[5-isobutyl-2-(2H-tetrazol-5-yl)-phenyl]piperazin-1-yl]methyl]-1-meth-yl-benzimidazole], on human AT1R, the inhibition at 1 µM is less than 30%, the inhibition at 10 µM was less than 30% and the IC50 stood at 49.7 µM. The microsomal CLint in series [1] was 28 µL/min/mg. In series [2], this compound returned a microsomal CLint of 20 µL/min/mg.

Turning to `CC(C)Oc1ccc(-c2nn[nH]n2)c(N2CCN(Cc3nc4ccccc4n3C)CC2)c1` [Compound A-24, 2-[[4-[5-isopropoxy-2-(2H-tetrazol-5-yl)phenyl]piperazin-1-yl]methyl]-1-methyl-benzimidazole], the inhibition at 1 µM on human AT1R was less than 30%. Further, on human AT1R, the inhibition at 10 µM is less than 30%. Also, the microsomal CLint in series [1] worked out at 7 µL/min/mg; in series [2], 9 µL/min/mg.

Turning to `CC(C)Cc1ccc(-c2nn[nH]n2)c(N2CCN(Cc3nc4ccccc4c(=O)[nH]3)CC2)c1` [Compound A-31, 2-[[4-[5-isobutyl-2-(2H-tetrazol-5-yl)phenyl]piperazin-1-yl]methyl]-3H-quinazolin-4-one], on human AT1R, the inhibition at 1 µM is less than 30% and the inhibition at 10 µM is less than 30%. Further, the microsomal CLint in series [1] is 5 µL/min/mg. In series [2], the microsomal CLint came out at 16 µL/min/mg.

For `CC(C)Oc1ccc(-c2nn[nH]n2)c(N2CCN(Cc3nc4ccccc4c(=O)[nH]3)CC2)c1` [Compound A-32], the inhibition at 1 µM at human AT1R is less than 30%. Further, at human AT1R, the inhibition at 10 µM was less than 30%. Besides, the intrinsic metabolic clearance (microsomal CLint) in series [1] amounted to 13 µL/min/mg; in series [2], 6 µL/min/mg.

As for `CC(C)Oc1ccc(-c2nn[nH]n2)c(N2CCN(Cc3nc4ccccc4s3)CC2)c1` [Compound A-51, 2-[[4-[5-isoprop-oxy-2-(2H-tetrazol-5-yl)phenyl]piper-azin-1-yl]methyl]-1,3-benzothiazole], on human AT1R, the inhibition at 1 µM is less than 30%, the inhibition at 10 µM is less than 30% and the 50% inhibitory concentration (IC50) came out at 55 µM. Besides, the intrinsic clearance (microsomal CLint) in series [1] stood at 1 µL/min/mg. The same compound came in with a microsomal CLint in series [2] of 4 µL/min/mg.

In the case of `Cc1cc(CN2CCN(c3cc(CC(C)C)ccc3-c3nn[nH]n3)CC2)no1` [Compound A-82, 3-[[4-[5-isobutyl-2-(2H-tetrazol-5-yl)phenyl]piperazin-1-yl]methyl]-5-methyl-isoxazole], at human AT1R, the inhibition at 1 µM is less than 30% and the inhibition at 10 µM was less than 30%. Besides, in series [1], the microsomal CLint was determined as 4 µL/min/mg. This compound also showed an intrinsic metabolic clearance (microsomal CLint) in series [2] of 7 µL/min/mg.

Take `CC(C)Cc1ccc(-c2nn[nH]n2)c(N2CCN(Cc3nccn3C)CC2)c1` [Compound A-83, 1-[5-isobutyl-2-(2H-tetrazol-5-yl)-phenyl]-4-[(1-meth-ylimidazol-2-yl)-methyl]piperazine]: at human AT1R, the inhibition at 1 µM was less than 30% and the inhibition at 10 µM was less than 30%. In addition, the intrinsic metabolic clearance (microsomal CLint) in series [1] was determined as 3 µL/min/mg. The intrinsic clearance (microsomal CLint) in series [2] is 11 µL/min/mg.

As to `CC(C)Cc1ccc(-c2nn[nH]n2)c(N2CCN(Cc3ccnn3C)CC2)c1` [Compound A-84, 1-[5-isobutyl-2-(2H-tetrazol-5-yl)phenyl]-4-[(1-methylpyrazol-5-yl)methyl]piperazine], at human AT1R, the inhibition at 1 µM was less than 30%. For the same compound, at human AT1R, the inhibition at 10 µM is less than 30%. Further, the results for the microsomal CLint in series [1] and in series [2] were 7 µL/min/mg and 17 µL/min/mg, respectively.

Take `CC(C)Cc1ccc(-c2nn[nH]n2)c(N2CCN(Cc3ncccn3)CC2)c1` [Compound A-88]: the inhibition at 1 µM at human AT1R is less than 30%. Besides, the inhibition at 10 µM on human AT1R is less than 30%. For the same compound, the microsomal CLint in series [1] and in series [2] was 7 µL/min/mg throughout.

As to `CC(C)Cc1ccc(-c2nn[nH]n2)c(N2CCN(Cc3cccnn3)CC2)c1` [Compound A-90, 3-[[4-[5-isobutyl-2-(2H-tetrazol-5-yl)phenyl]piperazin-1-yl]methyl]pyridazine], at human AT1R, the inhibition at 1 µM was less than 30% and the inhibition at 10 µM is less than 30%. Also, in series [1], the microsomal CLint was 4 µL/min/mg. In series [2], this compound came in with an intrinsic metabolic clearance (microsomal CLint) of 10 µL/min/mg.

For the compound `CC(C)Cc1cc(F)c(-c2nn[nH]n2)c(N2CCN(Cc3cccnn3)C(C)C2)c1` (stereo not shown) [Compound A-173, 3-[[4-[3-fluoro-5-isobutyl-2-(2H-tetrazol-5-yl)phenyl]-2-methyl-piperazin-1-yl]methyl]pyridazine], on human AT1R, the inhibition at 1 µM was less than 30% and the inhibition at 10 µM is less than 30%. The compound also displayed a microsomal CLint in series [1] of 12 µL/min/mg. This compound also showed an intrinsic clearance (microsomal CLint) in series [2] of 5 µL/min/mg.

As to `CC(C)Cc1cc(F)c(-c2nn[nH]n2)c(N2CCN(Cc3cccnn3)[C@@H](C)C2)c1` [Compound A-174, 3-[[(2S)-4-[3-fluoro-5-isobutyl-2-(2H-tetrazol-5-yl)phenyl]-2-methyl-piperazin-1-yl]methyl]pyridazine], at human AT1R, the inhibition at 1 µM was less than 30%. On human AT1R, the inhibition at 10 µM is less than 30%. For the same compound, the figures for the microsomal CLint in series [1] and in series [2] were less than 17.3 µL/min/mg and 15.3 µL/min/mg, respectively.

As to `CC(C)Cc1cc(F)c(-c2nn[nH]n2)c(N2CCN(Cc3ccccn3)[C@@H](C)C2)c1` [Compound A-217, (2S)-4-[3-fluoro-5-isobutyl-2-(2H-tetrazol-5-yl)phenyl]-2-methyl-1-(2-pyridylmethyl)piperazine], on human AT1R, the inhibition at 1 µM is less than 30%, the inhibition at 10 µM fell in the range of 30 to 50% and the IC50 amounted to 17.5 µM. Besides, the intrinsic metabolic clearance (microsomal CLint) in series [1] is less than 17.3 µL/min/mg.

Consider `Cc1cnc(CN2CCN(c3cc(CC(C)C)cc(F)c3-c3nn[nH]n3)C[C@@H]2C)s1` [Compound A-223, 2-[[(2S)-4-[3-fluoro-5-isobutyl-2-(2H-tetrazol-5-yl)phenyl]-2-methyl-piperazin-1-yl]methyl]-5-methyl-thiazole], for which, on human AT1R, the inhibition at 1 µM is less than 30% and the inhibition at 10 µM is less than 30%. In series [1], the intrinsic clearance (microsomal CLint) worked out at 24.1 µL/min/mg.
